Experimental data taken from US6855843B2, “Inhibitors of α4 mediated cell adhesion” (Tanabe Seiyaku Co., Ltd., priority 1998, dated 2005).

Experiments:
[1] = target: T1, α4β7 (adhesion of RPMI cells to CS-1) (Homo sapiens, UniProt P13612+P26010); assay: RPMI-CS-1 cell adhesion assay; format: cell-based; details: adhesion of RPMI B-cell line (expresses α4β7) to CS-1 peptide coated microwells; read-out: RPMI-CS-1 IC50 value range
T1 construct: endogenous in cells
T1 sequence (P13612 34-1032): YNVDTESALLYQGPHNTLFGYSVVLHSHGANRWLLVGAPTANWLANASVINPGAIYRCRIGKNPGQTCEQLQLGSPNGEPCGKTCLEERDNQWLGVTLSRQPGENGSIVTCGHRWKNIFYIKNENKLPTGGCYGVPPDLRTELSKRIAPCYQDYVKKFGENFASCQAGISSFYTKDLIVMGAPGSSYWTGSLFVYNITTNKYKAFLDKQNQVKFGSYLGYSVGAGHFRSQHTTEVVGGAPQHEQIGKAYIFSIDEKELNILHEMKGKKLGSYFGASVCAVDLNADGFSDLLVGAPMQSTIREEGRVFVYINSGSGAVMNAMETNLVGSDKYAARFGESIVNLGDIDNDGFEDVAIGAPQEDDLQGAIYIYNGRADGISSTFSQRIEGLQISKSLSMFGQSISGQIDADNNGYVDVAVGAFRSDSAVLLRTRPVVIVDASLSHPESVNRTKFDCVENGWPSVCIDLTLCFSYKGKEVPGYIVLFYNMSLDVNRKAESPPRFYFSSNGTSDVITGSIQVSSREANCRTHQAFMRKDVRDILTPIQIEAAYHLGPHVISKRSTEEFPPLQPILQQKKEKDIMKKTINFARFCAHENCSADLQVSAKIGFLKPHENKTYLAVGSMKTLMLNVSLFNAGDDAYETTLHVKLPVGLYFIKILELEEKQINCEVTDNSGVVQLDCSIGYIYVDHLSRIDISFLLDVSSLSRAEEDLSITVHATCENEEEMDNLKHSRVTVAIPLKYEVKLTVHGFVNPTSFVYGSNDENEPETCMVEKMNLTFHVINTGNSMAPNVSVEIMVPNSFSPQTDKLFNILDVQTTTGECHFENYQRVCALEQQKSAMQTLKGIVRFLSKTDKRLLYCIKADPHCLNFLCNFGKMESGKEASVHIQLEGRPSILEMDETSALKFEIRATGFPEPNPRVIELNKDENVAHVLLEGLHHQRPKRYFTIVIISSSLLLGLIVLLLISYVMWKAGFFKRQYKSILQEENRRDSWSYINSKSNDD
T1 sequence (P26010 20-798): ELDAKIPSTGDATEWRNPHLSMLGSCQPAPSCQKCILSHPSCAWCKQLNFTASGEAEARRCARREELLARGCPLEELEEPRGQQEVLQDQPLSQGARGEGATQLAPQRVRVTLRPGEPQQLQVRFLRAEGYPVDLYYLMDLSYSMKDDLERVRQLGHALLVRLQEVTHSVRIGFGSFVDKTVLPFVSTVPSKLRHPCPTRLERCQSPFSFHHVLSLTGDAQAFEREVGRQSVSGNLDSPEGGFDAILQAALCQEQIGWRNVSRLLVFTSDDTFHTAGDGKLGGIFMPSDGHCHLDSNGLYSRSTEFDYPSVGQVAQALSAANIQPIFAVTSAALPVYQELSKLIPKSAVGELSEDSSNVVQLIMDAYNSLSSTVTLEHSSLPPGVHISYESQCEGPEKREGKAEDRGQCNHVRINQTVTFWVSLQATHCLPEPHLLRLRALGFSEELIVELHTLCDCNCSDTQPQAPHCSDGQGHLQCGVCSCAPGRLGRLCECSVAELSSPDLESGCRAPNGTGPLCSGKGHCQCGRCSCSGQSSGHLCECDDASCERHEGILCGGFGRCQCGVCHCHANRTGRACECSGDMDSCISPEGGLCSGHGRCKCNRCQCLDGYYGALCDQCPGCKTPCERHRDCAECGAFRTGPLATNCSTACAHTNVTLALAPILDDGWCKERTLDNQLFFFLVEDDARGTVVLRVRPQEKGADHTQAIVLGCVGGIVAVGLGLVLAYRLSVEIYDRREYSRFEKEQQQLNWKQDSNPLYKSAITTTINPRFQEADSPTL

Compound | melting point | IC50 [1]
O=C(N[C@@H](Cc1ccc(-c2c(OCCO)cccc2OCCO)cc1)C(=O)O)c1c(Cl)cccc1Cl [Example 229] | 124 to 125 °C | < 300 nM
O=C(N[C@@H](Cc1ccc(-c2c(OCC(F)(F)F)cccc2OCC(F)(F)F)cc1)C(=O)O)c1c(Cl)cccc1Cl [Example 230] | 93 to 94 °C | 300 to 1000 nM
N#CCOc1cccc(OCC#N)c1-c1ccc(C[C@H](NC(=O)c2c(Cl)cccc2Cl)C(=O)O)cc1 [Example 231] | 175 to 176 °C | < 300 nM
CN(C)CCOc1cccc(O)c1-c1ccc(C[C@H](NC(=O)c2c(Cl)cccc2Cl)C(=O)O)cc1 [Example 232] | 168 to 169 °C | < 300 nM
COCCOc1ccc2c(c1-c1ccc(C[C@H](NC(=O)c3c(Cl)cccc3Cl)C(=O)O)cc1)OCO2 [Example 233, N-(2,6-Dichlorobenzoyl)-4-[2,3-methylenedioxy-6-(2-methoxyethoxy)phenyl]-L-phenylalanine] | 167 to 168 °C | 300 to 1000 nM
COc1ccc2c(c1-c1ccc(C[C@H](NC(=O)c3c(Cl)cccc3Cl)C(=O)O)cc1)OCCO2 [Example 241, N-(2,6-Dichlorobenzoyl)-4-(2,3-ethylenedioxy-6-methoxyphenyl)-L-phenylalanine] | 218 °C | < 300 nM
CNCc1cc(OC)c(-c2ccc(C[C@H](NC(=O)c3c(Cl)cccc3Cl)C(=O)O)cc2)c(OC)c1 [Example 242, N-(2,6-Dichlorobenzoyl)-4-[2,6-dimethoxy-4-[(methylamino)methyl]phenyl]-L-phenylalanine] | 274 °C | < 300 nM
COc1cc(CN2CC[S+]([O-])CC2)cc(OC)c1-c1ccc(C[C@H](NC(=O)c2c(Cl)cccc2Cl)C(=O)O)cc1 [Example 263B, N-(2,6-Dichlorobenzoyl)-4-[2,6-dimethoxy-4-(thiomorpholinomethyl)phenyl]-L-phenylalanine S-oxide] | 162.8 °C | < 300 nM
COc1cc(CCN2CCN(C)CC2)cc(OC)c1-c1ccc(C[C@H](NC(=O)c2c(Cl)cccc2Cl)C(=O)O)cc1 [Example 264, N-(2,6-Dichlorobenzoyl)-4-[2,6-dimethoxy-4-[2-(4-methyl-1-piperazinyl)ethyl]phenyl]-L-phenylalanine] | 178.9 °C | < 300 nM
COc1cc(CCN2CCCCC2)cc(OC)c1-c1ccc(C[C@H](NC(=O)c2c(Cl)cccc2Cl)C(=O)O)cc1 [Example 265, N-(2,6-Dichlorobenzoyl)-4-[2,6-dimethoxy-4-(2-piperidinoethyl)phenyl]-L-phenylalanine] | 194.9 °C | < 300 nM
COc1cccc(OC)c1-c1ccc(C[C@H](NC(=S)c2c(Cl)cccc2Cl)C(=O)O)cc1 [Example 266, N-(2,6-Dichlorothiobenzoyl)-4-(2,6-dimethoxyphenyl)-L-phenylalanine] | 180.4 °C | < 300 nM
COc1cccc(OC)c1-c1ccc(C[C@H](NC(=O)c2c(Cl)cccc2Cl)C(=O)O)s1 [Example 294, N-(2,6-Dichlorobenzoyl)-3-[5-(2,6-dimethoxyphenyl)-2-thienyl]-L-alanine] | 134 °C (dec.) | 1000 to 5000 nM
COc1cccc(OC)c1-c1ccc(CC[C@H](NC(=O)c2c(Cl)cccc2Cl)C(=O)O)cc1 [Example 295, N-(2,6-Dichlorobenzoyl)-4-(2,6-dimethoxyphenyl)-L-homophenylalanine] | 105 to 107 °C | 1000 to 5000 nM
CCc1cc(C[C@H](NC(=O)c2c(Cl)cccc2Cl)C(=O)O)ccc1-c1ccccc1OC [Example 296, N-(2,6-Dichlorobenzoyl)-3-ethyl-4-(2-methoxyphenyl)-L-phenylalanine] | 105 to 107 °C | < 300 nM
COc1cccc(OC)c1-c1ccc(C[C@H](NC(=O)c2c(Cl)cccc2Cl)C(=O)O)cc1NC(C)=O [Example 297, N-(2,6-Dichlorobenzoyl)-4-(2,6-dimethoxyphenyl)-3-acetylamino-L-phenylalanine] | 142 to 144 °C | < 300 nM
COc1cccc(OC)c1-c1ccc(C[C@H](NC(=O)c2c(Cl)cccc2Cl)C(=O)O)cc1NS(C)(=O)=O [Example 298] | 118 to 120 °C | < 300 nM
CCOC(=O)Nc1cc(C[C@H](NC(=O)c2c(Cl)cccc2Cl)C(=O)O)ccc1-c1c(OC)cccc1OC [Example 299] | 216 to 217 °C | < 300 nM
COc1cccc(OC)c1-c1ccc(C[C@H](NC(=O)c2c(Cl)cc(-c3ccccc3)cc2Cl)C(=O)O)cc1 [Example 301, N-(2,6-Dichloro-4-phenylbenzoyl)-4-(2,6-dimethoxyphenyl)-L-phenylalanine] | 215 °C | < 300 nM
COc1cccc(OC)c1-c1ccc(C[C@H](NC(=O)c2c(Cl)cc(-c3cccn3C)cc2Cl)C(=O)O)cc1 [Example 302, N-[2,6-Dichloro-4-(1-methyl-2-pyrrolyl)benzoyl]-4-(2,6-dimethoxyphenyl)-L-phenylalanine] | 199 °C | < 300 nM
COc1cccc(OC)c1-c1ccc(C[C@H](NC(=O)c2c(Cl)cc(-c3ccc[nH]3)cc2Cl)C(=O)O)cc1 [Example 303, N-[4-(2-Pyrrolyl)-2,6-dichlorobenzoyl]-4-(2,6-dimethoxyphenyl)-L-phenylalanine] | 250 °C | < 300 nM
COc1cccc(OC)c1-c1ccc(C[C@H](NC(=O)c2c(Cl)ccc(-c3c(C)noc3C)c2Cl)C(=O)O)cc1 [Example 305, N-[3-(3,5-Dimethyl-4-isoxazolyl)-2,6-dichlorobenzoyl]-4-(2,6-dimethoxyphenyl)-L-phenylalanine] | 144.8 °C | 300 to 1000 nM
COc1cccc(OC)c1-c1ccc(C[C@H](NC(=O)c2c(Cl)cc(-c3nccs3)cc2Cl)C(=O)O)cc1 [Example 306, N-[4-(1,3-thiazol-2-yl)-2,6-dichlorobenzoyl]-4-(2,6-dimethoxyphenyl)-L-phenylalanine] | 141.9 °C | < 300 nM
COc1cccc(OC)c1-c1ccc(C[C@H](NC(=O)c2c(Cl)cc(-c3cscn3)cc2Cl)C(=O)O)cc1 [Example 307, N-[4-(1,3-Thiazol-4-yl)-2,6-dichlorobenzoyl]-4-(2,6-dimethoxyphenyl)-L-phenylalanine] | 186.5 °C | < 300 nM
COc1cccc(OC)c1-c1ccc(C[C@H](NC(=O)c2c(Cl)cc(-c3cnccn3)cc2Cl)C(=O)O)cc1 [Example 308, N-[4-(2-Pyrazinyl)-2,6-dichlorobenzoyl]-4-(2,6-dimethoxyphenyl)-L-phenylalanine] | 145.7 °C | < 300 nM
COc1ccc(CN2CCOCC2)c(OC)c1-c1ccc(C[C@H](NC(=O)c2c(Cl)cccc2Cl)C(=O)O)cc1 [Example 319, N-(2,6-Dichlorobenzoyl)-4-[2,6-dimethoxy-3-(morpholinomethyl)phenyl]-L-phenylalanine] | 241 to 242 °C | < 300 nM
COc1cccc(OC)c1-c1ccc(C[C@H](NC(=O)c2c(Cl)cc(F)cc2Cl)C(=O)O)cc1 [Example 320, N-(2,6-Dichloro-4-fluorobenzoyl)-4-(2,6-dimethoxyphenyl)-L-phenylalanine] | 206 to 207 °C | < 300 nM
